{"source": "paper PMC9403987", "about": "(Frontiers in Oncology, 2022)", "key": {"[1]": {"system": "LI1088", "test": "Subcutaneous LI1088 liver cancer xenograft", "format": "in vivo, BALB/c nude mice", "settings": "25 mg/kg daily oral, 28 days, measured day 25", "experimental": "(§1) The efficacy of GLR2007 was evaluated in human GBM and breast cancer orthotopic cell-line-derived xenografts in NOD/SCID mice (Shanghai Lingchang Biotechnology Co. Ltd, Shanghai, China) and BALB/c nude mice (Shanghai Sino-British SIPPR/BK Laboratory Animal Co. Ltd, Shanghai, China), and human lung, colorectal, and liver cancer subcutaneous cell-line-derived xenografts in BALB/c nude mice (Nanjing University National Resource Center, Nanjing, China, or Beijing Anikeeper Biotech Co., Beijing, China). Mice were maintained in humidity- and temperature-controlled conditions with food and water available ad libitum. For subcutaneous models, female BALB/c nude mice were inoculated at 4–8 weeks old with 3×10^6–1×10^7 tumor cells (see Table 1 for xenograft model cell types) in the right flank for tumor development. Randomization was performed when the mean tumor volume reached 118–171 mm^3."}, "[2]": {"system": "COLO 205", "test": "Subcutaneous COLO 205 colorectal cancer xenograft", "format": "in vivo, BALB/c nude mice", "settings": "25 mg/kg daily oral, 26 days, measured day 25", "experimental": "as §1"}, "[3]": {"system": "MCF-7 tumor cells", "test": "Orthotopic MCF-7 breast cancer xenograft", "format": "in vivo, NOD/SCID mice", "settings": "25 mg/kg daily oral", "experimental": "as §1, with “libitum.” for “libitum. For subcutaneous models, female BALB/c nude mice were inoculated at 4–8 weeks old with 3×10^6–1×10^7 tumor cells (see Table 1 for xenograft model cell types) in the right flank for tumor development. Randomization was performed when the mean tumor volume reached 118–171 mm^3.”\nIn two breast cancer orthotopic xenograft models, female NOD/SCID mice were subcutaneously implanted with an estrogen pellet (17β-estradiol; Innovative Research of America, Sarasota, FL, USA) one day before tumor inoculation. Mice were inoculated at 6–7 weeks old with 2×10^7 MCF-7 tumor cells plus Matrigel in a 1:1 ratio in PBS at a mammary fat pad or in the right flank. Randomization was performed when the mean tumor volume reached 135–138 mm^3."}, "[4]": {"design": "method as in PMID 26149830, PMID 20354191", "settings": "within 5 minutes after intravenous administration of 1 mg/kg; cited from earlier work"}, "[5]": {"system": "NCI-H1975", "test": "Subcutaneous NCI-H1975 non-small cell lung cancer xenograft", "format": "in vivo, BALB/c nude mice", "settings": "25 mg/kg daily oral, 22 days, measured day 16", "experimental": "as §1"}, "[6]": {"system": "BN2289", "test": "Subcutaneous BN2289 glioblastoma xenograft", "format": "in vivo, BALB/c nude mice", "settings": "25 mg/kg daily oral, 28 days, measured day 21", "experimental": "as §1"}, "[7]": {"settings": "mouse, in vivo, po, 100 mg/kg; cited from earlier work"}}}
{"compound": "CC(=O)c1c(C)c2cnc(Nc3ccc(N4CCNCC4)cn3)nc2n(C2CCCC2)c1=O", "note": "[Palbociclib, palbociclib, reference compound]", "values": [{"measurement": "TGI (%)", "setting": "[1]", "result": 16.4, "unit": "%"}, {"measurement": "TGI (%)", "setting": "[2]", "result": 52.9, "unit": "%"}, {"measurement": "TGI (%)", "setting": "[3]; 21 days, measured day 21, 8 mice", "result": 45.5, "unit": "%"}, {"measurement": "TGI (%)", "setting": "[3]; 28 days, measured day 25, 10 mice", "result": 77.7, "unit": "%"}, {"measurement": "unbound brain-to-plasma partition coefficient (Kp,uu)", "setting": "[4]", "result": 0.01}, {"measurement": "TGI (%)", "setting": "[5]", "result": 33.6, "unit": "%"}, {"measurement": "TGI (%)", "setting": "[6]", "result": 34.0, "unit": "%"}]}
{"compound": "CN(C)C(=O)c1cc2cnc(Nc3ccc(N4CCNCC4)cn3)nc2n1C1CCCC1", "note": "[ribociclib]", "values": [{"measurement": "Kp,uu", "setting": "[7]", "result": 0.105}]}
